This passage reports excess molar enthalpy results from a compilation of properties of binary mixtures (doi:10.1021/je990084v).

This series can be described thus: excess molar enthalpy (molar enthalpy of mixing); xn = mol fraction of the nth substance listed. As to conditions: 298.15 K, 100 kPa.

SMILES strings stand for the structures.

With `CC(C)OC(C)C` + CCC(C)O, the excess molar enthalpy reads like this: (x2 = 0.214) 0.165 kcal/mol; (x2 = 0.3094) 0.189 kcal/mol; (x2 = 0.4262) 0.198 kcal/mol; (x2 = 0.5328) 0.187 kcal/mol; (x2 = 0.6067) 0.17 kcal/mol; (x2 = 0.6761) 0.146 kcal/mol. Also, where the note is “x2 = 0.72”, the excess molar enthalpy amounted to 0.133 kcal/mol.
As for `CC(C)OC(C)C` + CCCCO, the excess molar enthalpy by setting is: (x2 = 0.0754) 0.061 kcal/mol; (x2 = 0.1116) 0.0808 kcal/mol; (x2 = 0.2147) 0.109 kcal/mol; (x2 = 0.3102) 0.118 kcal/mol; (x2 = 0.5338) 0.102 kcal/mol; (x2 = 0.6007) 0.0884 kcal/mol. In addition, for the setting “x2 = 0.677”, the excess molar enthalpy was found to be 0.111 kcal/mol.
